The subject of one data set is Daphnia magna. Conditions: chronic/long-term; duration: 21 days.
The next data set has as its system Cucumis sativus. The conditions noted are these: chronic/long-term; other.
A further data set deals with Rattus norvegicus. The conditions noted are these: oral, histopathology: nonneoplastic.
The subject of another data set is Apis mellifera. Conditions: acute; duration: 48 hours; oral; unspecified; mortality.
The test system of another data set is Typhlodromus pyri. Nature of the data set: LR50; higher = less toxic. Conditions: not reported; mortality.
The mark [1] stands for this setting: acute, oral, unspecified, mortality.

A word on the NOAEL: it is the highest tested level that showed no adverse finding. In the case of `CCCOC(=O)NCCCN(C)C.Cl` [Propamocarb hydrochloride], the NOEC in the data set on Daphnia magna is 12.3 mg/L; in the data set on Cucumis sativus it was 9180 g/ha; with Lepomis macrochirus (chronic/long-term, duration: 32 days), > 6.3 mg/L; in the data set with Bird (reproductive) it was 105 mg/kg-day; with Tagia sp. (chronic/long-term, duration: 56 days, reproduction), 362 mg/kg. In addition, the LC50 was > 92 µg/mL in the data set with Lepomis macrochirus (acute, duration: 96 hours, mortality); > 962 mg/kg-day in the data set with Bird (short-term, oral, feed, mortality); > 660 mg/kg with Tagia sp. (acute, duration: 14 days, mortality). Also, the NOAEL with Rattus norvegicus (chronic, duration: 52 weeks, diet, F) was 29 mg/kg-day; in the data set with Rattus norvegicus (short-term, duration: 28 days, gavage) it was 100 mg/kg-day. The LD50 with Bird (setting [1]) is > 1840 mg/kg-day, the LD50 under setting [1] was > 1330 mg/kg-day and the LD50 in the data set with Apis mellifera is > 84 µg/piece. Besides, under “chronic/long-term”, the LEC came to 104 mg/kg-day. Further, the LR50 in the data set on Typhlodromus pyri is > 360 g/ha.

(Values after EPA's ToxValDB 9.5 (doi:10.2903/j.efsa.2006.78r).)
